From US20140135310A1, “SULPHONAMIDE DERIVATIVES OF ALICYCLIC AMINES FOR THE TREATMENT OF CENTRAL NERVOUS SYSTEM DISEASES” (Adamed Sp. z o.o., priority 2011, published 2014) come the findings set out here.

Assay [1] addresses T1, receptors D4.4 (Homo sapiens, UniProt P21917).
T1 sequence (P21917 1-419): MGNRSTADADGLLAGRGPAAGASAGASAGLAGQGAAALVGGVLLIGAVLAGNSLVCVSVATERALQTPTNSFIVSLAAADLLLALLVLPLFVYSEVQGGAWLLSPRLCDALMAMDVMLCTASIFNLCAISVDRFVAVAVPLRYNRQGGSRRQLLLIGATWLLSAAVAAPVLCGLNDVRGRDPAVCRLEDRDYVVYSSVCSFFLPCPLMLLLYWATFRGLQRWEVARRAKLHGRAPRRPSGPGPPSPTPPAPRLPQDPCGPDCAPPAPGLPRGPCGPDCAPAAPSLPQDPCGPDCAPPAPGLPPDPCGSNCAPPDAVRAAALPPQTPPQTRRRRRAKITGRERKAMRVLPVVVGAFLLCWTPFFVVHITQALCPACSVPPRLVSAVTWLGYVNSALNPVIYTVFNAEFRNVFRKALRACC
Kind of assay: Radioligand binding assay, dopaminergic D4 (D4.4) receptors. Particulars: test compound 1×10^−6 M. The gist of the method:
(§1)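 Competition radioligand binding at human D2, D3 and D4.4 receptors, detected by scintillation counting; nonspecific binding defined with excess unlabelled ligand. Results as percent inhibition of control specific binding; IC50 by Hill-equation nonlinear regression; Ki via Cheng-Prusoff, with radioligand KD from Scatchard plot.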

The target in assay [2] is 5-HT7 serotoninergic receptors (Homo sapiens, UniProt P34969). Kind of assay: Cellular functional assay, 5-HT7 serotoninergic receptors. Particulars: for 5-HT7 ag [%]: agonist mode, percent of control specific agonist response. Type of assay: cell-based. How it is done:
The results are expressed as a percent of control specific agonist response ((measured specific response/control specific agonist response)×100) obtained in the presence of the test compounds.
The EC50 values (concentration producing a half-maximal specific response) and IC50 values (concentration causing a half-maximal inhibition of the control specific agonist response) were determined by non-linear regression analysis of the concentration-response curves generated with mean replicate values using Hill equation curve fitting (Y=D+[(A−D)/(1+(C/C50)nH)], where Y=specific response, D=minimum specific response, A=maximum specific response, C=compound concentration, and C50=EC50 or IC50, and nH=slope factor). This analysis was performed using a software developed at Cerep (Hill software) and validated by comparison with data generated by the commercial software SigmaPlot® 4.0 for Windows® (© 1997 by SPSS Inc.).
For the antagonists, the apparent dissociation constants (Kb) were calculated using the modified Cheng Prusoff equation (Kb=IC50/(1+(A/EC50A)), where A=concentration of reference agonist in the assay, and EC50A=EC50 value of the reference agonist).

In assay [3] the target is T2, 5-HT6 receptor (Homo sapiens, UniProt P50406).
T2 construct: purchased PerkinElmer
Kind of assay: Radioligand binding assay, serotoninergic 5-HT6 receptors.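 For 5-HT6 [%]: test compound at 1 µM.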 The conditions noted are these: for Ki: read-out: Inhibition constants Ki, 5-HT6. The gist of the method:
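Values are Ki from Cheng–Prusoff, taking IC50 from Hill nonlinear regression of competition curves and KD from a Scatchard plot. Specific binding was total minus binding with excess unlabelled ligand. Radioligand displacement was detected by scintillation counting, and data were also reported as percent of control specific binding.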

Assay [4] deals with σ receptors. Kind of assay: Radioligand binding assay, σ receptors. Particulars: rat cerebral cortex, [3H]DTG 8 nM. The gist of the method: (§2)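 Values derive from radioligand displacement, with non-specific binding defined by excess cold ligand and detection by scintillation. Hill-fit IC50s were converted to Ki via Cheng-Prusoff using Scatchard-derived Kd; percent inhibition of control specific binding also reported.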

In assay [5] the target is dopaminergic receptors D3 (Homo sapiens, UniProt P35462). Kind of assay: Radioligand binding assay, dopaminergic D3 receptors. The conditions noted are these: test compound 1×10^−6 M. The gist of the method:
as §1

Assay [6] deals with T3, 5-HT2A receptor (Homo sapiens, UniProt P28223).
T3 construct: purchased PerkinElmer
As to the kind of experiment: Radioligand binding assay, serotoninergic 5-HT2A receptors. The conditions noted are these: for inhibition at 1 µM: binding assay result in %, Table 5a; for Ki: read-out: Inhibition constants Ki, 5-HT2A. An outline of the steps:
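Radioligand competition binding with scintillation counting; nonspecific binding defined by excess unlabelled ligand. Data as percent inhibition of control specific binding. IC50 by Hill-equation fit of competition curves; Ki by Cheng-Prusoff, with radioligand Kd from Scatchard plot.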

The target in assay [7] is T4, M3 muscarinic receptors (Homo sapiens, UniProt P20309).
T4 construct: expressed in transfected cells; host or cells: CHO cells
As to the kind of experiment: Radioligand binding assay, muscarinic M3 receptors. Particulars: test compound 1×10^−6 M. An outline of the steps:
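Radioligand competition binding, detected by scintillation counting; non-specific binding defined with excess unlabelled ligand. Results given as % inhibition of control specific binding; IC50 from Hill-equation fit of competition curves, Ki via Cheng-Prusoff with radioligand KD from Scatchard plot.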

Assay [8] has as its system α1 adrenergic receptors (rat cerebral cortex). Kind of assay: Radioligand binding assay, adrenergic α1 receptors. The conditions noted are these: test compound 1×10^−6 M. The gist of the method: as §2
Setting [9] is: binding assay result in %, Table 5a.

T4 sequence (P20309 whole entry): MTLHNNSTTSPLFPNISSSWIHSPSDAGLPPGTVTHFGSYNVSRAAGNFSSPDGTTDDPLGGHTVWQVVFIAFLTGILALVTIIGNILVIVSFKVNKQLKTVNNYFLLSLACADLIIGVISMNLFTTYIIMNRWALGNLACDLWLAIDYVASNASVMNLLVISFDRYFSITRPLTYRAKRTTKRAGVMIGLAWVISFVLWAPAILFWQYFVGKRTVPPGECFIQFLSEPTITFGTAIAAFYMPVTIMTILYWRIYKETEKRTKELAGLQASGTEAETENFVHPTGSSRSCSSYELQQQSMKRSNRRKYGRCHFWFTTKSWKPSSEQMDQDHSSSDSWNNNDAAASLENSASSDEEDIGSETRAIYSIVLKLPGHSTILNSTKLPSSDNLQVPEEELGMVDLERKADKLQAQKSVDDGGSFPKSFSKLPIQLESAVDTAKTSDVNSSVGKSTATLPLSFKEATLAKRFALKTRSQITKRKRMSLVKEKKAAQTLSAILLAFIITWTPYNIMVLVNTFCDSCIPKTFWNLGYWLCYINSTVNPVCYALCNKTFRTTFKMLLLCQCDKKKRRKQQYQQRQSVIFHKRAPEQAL
Sequence of dopaminergic receptors D3 (P35462 whole entry): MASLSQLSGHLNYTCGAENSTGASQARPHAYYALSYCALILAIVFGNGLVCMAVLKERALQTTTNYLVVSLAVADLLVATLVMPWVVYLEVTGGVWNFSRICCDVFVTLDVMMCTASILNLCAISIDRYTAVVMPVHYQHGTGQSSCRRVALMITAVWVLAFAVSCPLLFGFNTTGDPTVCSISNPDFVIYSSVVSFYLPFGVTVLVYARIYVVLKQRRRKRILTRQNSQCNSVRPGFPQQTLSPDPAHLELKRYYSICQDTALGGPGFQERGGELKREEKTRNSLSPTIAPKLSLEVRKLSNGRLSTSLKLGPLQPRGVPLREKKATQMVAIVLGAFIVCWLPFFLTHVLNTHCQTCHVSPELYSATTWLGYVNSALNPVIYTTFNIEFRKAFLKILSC
Sequence of 5-HT7 serotoninergic receptors (P34969 whole entry): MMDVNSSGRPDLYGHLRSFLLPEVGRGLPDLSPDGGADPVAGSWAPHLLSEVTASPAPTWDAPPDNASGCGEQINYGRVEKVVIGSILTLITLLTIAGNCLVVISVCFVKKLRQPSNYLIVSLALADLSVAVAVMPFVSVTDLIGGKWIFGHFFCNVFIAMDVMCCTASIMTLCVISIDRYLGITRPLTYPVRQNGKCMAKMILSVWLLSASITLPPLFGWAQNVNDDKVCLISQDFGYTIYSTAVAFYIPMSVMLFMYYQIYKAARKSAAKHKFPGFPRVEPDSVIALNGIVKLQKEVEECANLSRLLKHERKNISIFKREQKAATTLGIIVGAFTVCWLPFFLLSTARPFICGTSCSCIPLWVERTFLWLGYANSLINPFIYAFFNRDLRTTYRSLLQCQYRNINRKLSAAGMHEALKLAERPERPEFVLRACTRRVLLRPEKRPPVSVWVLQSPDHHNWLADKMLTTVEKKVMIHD
T2 sequence (P50406 whole entry): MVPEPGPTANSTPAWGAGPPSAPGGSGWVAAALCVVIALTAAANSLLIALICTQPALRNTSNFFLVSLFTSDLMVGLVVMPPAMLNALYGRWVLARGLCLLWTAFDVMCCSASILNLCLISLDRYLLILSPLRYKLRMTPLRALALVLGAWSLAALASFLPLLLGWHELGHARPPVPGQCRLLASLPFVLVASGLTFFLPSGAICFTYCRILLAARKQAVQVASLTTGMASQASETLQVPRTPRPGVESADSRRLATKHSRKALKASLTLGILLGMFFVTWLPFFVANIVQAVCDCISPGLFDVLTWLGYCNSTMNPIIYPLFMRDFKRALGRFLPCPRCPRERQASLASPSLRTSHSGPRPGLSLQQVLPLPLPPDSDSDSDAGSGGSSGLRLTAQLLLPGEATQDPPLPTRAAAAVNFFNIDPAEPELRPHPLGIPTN
T3 sequence (P28223 whole entry): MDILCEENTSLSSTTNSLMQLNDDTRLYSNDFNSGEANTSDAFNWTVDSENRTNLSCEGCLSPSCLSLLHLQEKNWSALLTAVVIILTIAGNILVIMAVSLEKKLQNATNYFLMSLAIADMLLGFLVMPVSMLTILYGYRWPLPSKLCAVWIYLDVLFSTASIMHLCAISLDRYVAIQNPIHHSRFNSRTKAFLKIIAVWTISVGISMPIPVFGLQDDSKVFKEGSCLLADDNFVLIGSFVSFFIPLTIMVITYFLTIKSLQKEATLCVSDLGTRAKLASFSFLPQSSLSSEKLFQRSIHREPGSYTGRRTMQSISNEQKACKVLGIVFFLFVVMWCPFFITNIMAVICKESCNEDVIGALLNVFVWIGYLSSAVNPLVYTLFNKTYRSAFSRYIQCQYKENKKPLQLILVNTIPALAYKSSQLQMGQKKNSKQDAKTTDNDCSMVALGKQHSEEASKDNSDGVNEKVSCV

For orientation: inhibition means the change of the read-out against control, counted positive when it falls. `O=S(=O)(NC1CCN(CCCc2noc3cc(F)ccc23)C1)c1cccc2ccccc12` (centres unmarked) [Compound 20, N-[1-[3-(6-Fluoro-1,2-benzoxazol-3-yl)propyl]pyrrolidin-3-yl]naphthalene-1-sulphonamide]: the inhibition at 1 µM in assay [1] was 100%; in assay [3] (setting [9]), 97%; in assay [5] it was 69%; in assay [6] it was 100%; in assay [7], -7%. In addition, in assay [2], the “5-HT7 ag [%]” value is listed as −2%. In assay [4], the “σ [%]” value is 83%. The “α1 [%]” value in assay [8] turned out to be 86%.
For the compound `O=S(=O)(NC1CCN(CCCc2noc3cc(F)ccc23)C1)c1ccc2ccccc2c1` (centres unmarked) [Compound 21, N-[1-[3-(6-Fluoro-1,2-benzoxazol-3-yl)propyl]pyrrolidin-3-yl]naphthalene-2-sulphonamide], the inhibition at 1 µM in assay [1] is 83%; in assay [3] (setting [9]) it was 95%; in assay [5], 96%; in assay [6], 100%; in assay [7] it was -11%. The “5-HT7 ag [%]” value in assay [2] is on record as −1%. For the same compound, the Kb in assay [2] (apparent dissociation constant, modified Cheng Prusoff equation, read-out: 5-HT7 antag Kb) is 1.7 nM. Besides, the “σ [%]” value in assay [4] turned out to be 60%. Also, the “α1 [%]” value in assay [8] turned out to be 95%.
On to `O=S(=O)(NC1CCN(CCCc2noc3cc(F)ccc23)C1)c1csc2ccccc12` (centres unmarked) [Compound 26, N-[1-[3-(6-Fluoro-1,2-benzoxazol-3-yl)propyl]pyrrolidin-3-yl]-benzothiophene-3-sulphonamide], for which the inhibition at 1 µM in assay [1] amounted to 101%; in assay [3] (setting [9]) it was 98%; in assay [5], 81%; in assay [7], 11%. Moreover, in assay [2], the “5-HT7 ag [%]” value was −3%. The “σ [%]” value in assay [4] stood at 80%. Moreover, in assay [8], the “α1 [%]” value came out at 87%.
By Ki is commonly meant a dissociation constant, usually derived from enzyme kinetics or from competition with a known ligand. Turning to `Cc1c(S(=O)(=O)N[C@@H]2CCN(CCCc3noc4cc(F)ccc34)C2)sc2ccc(F)cc12` [Compound 202, 5-Fluoro-N-[(3R)-1-[3-(6-fluoro-1,2-benzoxazol-3-yl)propyl]pyrrolidin-3-yl]-3-methyl-benzothiophene-2-sulphonamide], the inhibition at 1 µM in assay [1] was found to be 76%; in assay [3] (setting [9]), 100%; in assay [5], 96%; in assay [6], 99%; in assay [7], 9%. The “5-HT7 ag [%]” value in assay [2] was −3%. For the same compound, the Ki was found to be 7.1 nM in assay [3] and 1.4 nM in assay [6]. Besides, in assay [8], the “α1 [%]” value came out at 98%.
As for `Cc1c(S(=O)(=O)N[C@H]2CCN(CCCc3noc4cc(F)ccc34)C2)sc2ccc(F)cc12` [Compound 203, 5-Fluoro-N-[(3S)-1-[3-(6-fluoro-1,2-benzoxazol-3-yl)propyl]pyrrolidin-3-yl]-3-methyl-benzothiophene-2-sulphonamide], the inhibition at 1 µM in assay [1] was determined as 78%; in assay [3] (setting [9]), 100%; in assay [5] it was 95%; in assay [6], 99%; in assay [7], 12%. Further, in assay [2], the “5-HT7 ag [%]” value is 0%. Also, the results for the Ki in assay [3] and in assay [6] were 12 nM and 0.7 nM, respectively. Further, the “α1 [%]” value in assay [8] is 91%.
As to `O=S(=O)(N[C@@H]1CCN(CCCc2noc3cc(F)ccc23)C1)c1ccc2ccccc2c1` [Compound 206, N-[(3R)-1-[3-(6-Fluoro-1,2-benzoxazol-3-yl)propyl]pyrrolidin-3-yl]naphthalene-2-sulphonamide], the inhibition at 1 µM turned out to be 87% in assay [1]; 101% in assay [3] (setting [9]); 95% in assay [5]; 100% in assay [6]; 9% in assay [7]. Further, the “5-HT7 ag [%]” value in assay [2] is −1%. Also, the Ki in assay [3] was 6.1 nM; in assay [6], 0.7 nM. Moreover, the “α1 [%]” value in assay [8] is 93%.
On to `O=S(=O)(NC1CCN(CCCc2noc3cc(F)ccc23)C1)c1cc2ccccc2o1` (centres unmarked) [Compound 216, N-[1-[3-(6-Fluoro-1,2-benzoxazol-3-yl)propyl]pyrrolidin-3-yl]benzofuran-2-sulphonamide], for which the inhibition at 1 µM amounted to 87% in assay [1], 97% in assay [3] (setting [9]), 85% in assay [5] and 28% in assay [7]. The “5-HT7 ag [%]” value in assay [2] is given as −5%. Further, the “σ [%]” value in assay [4] was found to be 88%. Moreover, in assay [8], the “α1 [%]” value came out at 84%.
As for `Cc1ccc2sc(S(=O)(=O)NC3CCN(CCCc4noc5cc(F)ccc45)C3)cc2c1` (centres unmarked) [Compound 226, N-[1-[3-(6-Fluoro-1,2-benzoxazol-3-yl)propyl]pyrrolidin-3-yl]-5-methylbenzothiophene-2-sulphonamide], the inhibition at 1 µM is 69% in assay [1], 92% in assay [3] (setting [9]), 95% in assay [5] and 8% in assay [7]. The “5-HT7 ag [%]” value in assay [2] is −2%. In assay [4], the “σ [%]” value is recorded as 82%. Besides, in assay [8], the “α1 [%]” value came out at 73%.
With `COc1ccc2cc(S(=O)(=O)NC3CCN(CCCc4noc5cc(F)ccc45)C3)ccc2c1` (centres unmarked) [Compound 227, N-[1-[3-(6-Fluoro-1,2-benzoxazol-3-yl)propyl]pyrrolidin-3-yl]-6-methoxy-naphthalene-2-sulphonamide], the inhibition at 1 µM amounted to 88% in assay [1], 94% in assay [3] (setting [9]), 96% in assay [5] and 13% in assay [7]. Besides, the “5-HT7 ag [%]” value in assay [2] is −2%. For the same compound, the “σ [%]” value in assay [4] stood at 59%. The “α1 [%]” value in assay [8] is on record as 85%.
In the case of `Cc1ccc2sc(S(=O)(=O)N[C@@H]3CCN(CCCc4noc5cc(F)ccc45)C3)cc2c1` [Compound 228, N-[(3R)-1-[3-(6-Fluoro-1,2-benzoxazol-3-yl)propyl]pyrrolidin-3-yl]-5-methyl-benzothiophene-2-sulphonamide], the inhibition at 1 µM in assay [1] is 68%; in assay [3] (setting [9]), 100%; in assay [5] it was 97%; in assay [7], 12%. Besides, the “5-HT7 ag [%]” value in assay [2] is recorded as 0%. Moreover, the figures for the Ki in assay [3] and in assay [6] were 14 nM and 1 nM, respectively. In addition, the “α1 [%]” value in assay [8] turned out to be 88%.
As for `O=S(=O)(NC1CCN(CCCc2noc3cc(F)ccc23)C1)c1cc2ccc(F)cc2s1` (centres unmarked) [Compound 234, 6-Fluoro-N-[1-[3-(6-fluoro-1,2-benzoxazol-3-yl)propyl]pyrrolidin-3-yl]benzothiophene-2-sulphonamide], the inhibition at 1 µM in assay [1] came to 70%; in assay [3] (setting [9]), 98%; in assay [5], 94%; in assay [6] it was 100%; in assay [7], 17%. Further, the “5-HT7 ag [%]” value in assay [2] is 0%. Also, in assay [8], the “α1 [%]” value is given as 92%.
Take “N-[1-[3-(6-Fluoro-1,2-benzoxazol-3-yl)propyl]pyrrolidin-3-yl]-1-methyl-imidazole-4-sulphonamide [Compound 217]”: the “D4.4 [%]” value in assay [1] is reported as 72%. Besides, the “5-HT7 ag [%]” value in assay [2] is 5%. For the same compound, the “5-HT7 antag [%]” value in assay [2] (antagonist mode) came to 74%. Also, the “5-HT6 [%]” value in assay [3] (setting [9]) came out at 98%. The “σ [%]” value in assay [4] amounted to 86%. Besides, the “D3 [%]” value in assay [5] is reported as 84%. The “M3 [%]” value in assay [7] is given as 6%. For the same compound, in assay [8], the “α1 [%]” value turned out to be 40%.
